Here are results for four compounds from PMC11256175 (Bioengineering & Translational Medicine, 2024).

≈ marks a conversion by molar mass, not a printed value. Entries after “also recorded” stand apart in the source; their conditions may differ. Like-named read-outs stand apart in the source and are kept apart here. Bounds are passed on as bounds.

On the set-up of data set [1]: method as in earlier work. The settings on record: mice and rats; cited from earlier work.
On the set-up of data set [2]: method as in PMID 11672957. The settings on record: after SC or IM injection in pigs; cited from earlier work.
The conditions of data set [3]: phosphate‐buffered saline [PBS], pH 7.4; cited from earlier work.
A short description of data set [4]: Solubility of EV‐P in phosphate buffer and dissolution medium. Format: physicochemical.
Data set [5] can be described thus: Dispersibility of EV‐P particles in oily vehicles (visual). Format: physicochemical. The settings on record: after 3 days storage at 25°C, EV‐P 9.0 mg/mL. How it is done:
Pulverized EV‐P powder (5 mg as EV) was added to injectable oil vehicles (1 mL) in an Eppendorf tube. The mixture was then vortexed for 10 min using a multi‐vortex (Vortex Genie 2, Scientific Industries, Chicago, IL, USA) and then shaken for 3 h at 25°C in a shaking incubator (model BF‐60SIRL, Bio Free, Seoul, Korea). Then, the dispersibility of EV‐P particles in different oily vehicles was visually evaluated. […] The EV‐P concentration in the sample was analyzed using Waters HPLC system (Model 515 pump, Model 486 UV‐VIS detector, and Model 717 plus autosampler, Waters, Milford, MA, USA) equipped with a reversed‐phase C18 column (4.6 × 150 mm, 5 μm, Shiseido). The mobile phase for EV‐P analysis consisted of 2‐propanol and deionized distilled water at a volume ratio of 6:4. The flow rate of the mobile phase and detection wavelength were 1.0 mL/min and 253 nm, respectively, and the elution time of EV‐P was 5.3 min. The calibration curve was linear in the range of 1–100 μg/mL and the limit of detection (LOD) and limit of quantitation (LOQ) values were calculated as 0.5 μg/mL and 1.5 μg/mL, respectively.

Data set [6] in a line: Equilibrium solubility of EV‐P in injectable oily vehicles (HPLC). Format: physicochemical. Particulars: for solubility at 3 days: 25°C, stored over 3 days, mean ± SD (n = 3). How it is done: […] […] […] […] The EV‐P concentration in the sample was analyzed using Waters HPLC system (Model 515 pump, Model 486 UV‐VIS detector, and Model 717 plus autosampler, Waters, Milford, MA, USA) equipped with a reversed‐phase C18 column (4.6 × 150 mm, 5 μm, Shiseido). The mobile phase for EV‐P analysis consisted of 2‐propanol and deionized distilled water at a volume ratio of 6:4. The flow rate of the mobile phase and detection wavelength were 1.0 mL/min and 253 nm, respectively, and the elution time of EV‐P was 5.3 min. The calibration curve was linear in the range of 1–100 μg/mL and the limit of detection (LOD) and limit of quantitation (LOQ) values were calculated as 0.5 μg/mL and 1.5 μg/mL, respectively.

On the set-up of data set [7]: method as in PMID 27067365. Particulars: pretreatment and intermittent dosing of clodronate; cited from earlier work.

Turning to `C=C1[C@H](CO)[C@@H](O)C[C@@H]1n1cnc2c(=O)[nH]c(N)nc21` [EV, entecavir], the “Oral doses with minimal acute toxicity” value in data set [1] was “up to 200 mg/kg”.

Take `CCCCCCCCCCCCCC(=O)OC(C)C` [isopropyl myristate]: the “Elimination T 1/2 from injection site” value in data set [2] is listed as “approximately 20 days”.

As for `C=C1[C@H](COC(=O)CCCCCCCCCCCCCCC)[C@@H](O)C[C@@H]1n1cnc2c(=O)[nH]c(N)nc21` [EV‐P, 2‐amino‐1,9‐dihydro‐9‐[(1S,3R,4S)‐4‐hydroxy‐3‐(hexadecanoyloxymethyl)‐2‐methylenecyclopentyl]‐6H‐purin‐6‐one], the Aqueous solubility entry in data set [3] was “approximately 1.1 μg/mL”. Also, the solubility – broadly, the dissolved amount per volume that the medium holds – in data set [4] (isopropyl alcohol and distilled water (5:5, v/v) mixture, read-out: Solubility in dissolution medium) is over 100 µg/mL; in data set [4] (phosphate buffer / aqueous media pH 7.4, read-out: Solubility in phosphate buffer (pH 7.4)), 1.1 µg/mL (≈ 2.13 µM). For the same compound, the Dispersibility result in data set [5] (in Labrafac PG) was “evenly dispersed”; in data set [5] (in Miglyol 812) it was “Aggregated”; in data set [5] (in castor oil), “Aggregated”; in data set [5] (in cotton seed oil), “Aggregated”; in data set [5] (in oleic acid), “Re‐dispersible”; in data set [5] (in peanut oil) it was “Aggregated”. Further, the Dispersibility entry is reported as “Aggregated” in data set [5] (in soybean oil) and “evenly dispersed; also recorded: Re‐dispersible” in data set [5] (in tricaprylin). For the same compound, the “EV‐P dissolved in OS” value in data set [6] (OS designed using tricaprylin and Labrafac, EV‐P concentration of 9.0 mg/mL) is “less than 1.0 % (w/v)”. Besides, the solubility at 3 days in data set [6] (in castor oil) amounted to 2100 µg/mL (≈ 4070 µM); in data set [6] (in peanut oil), 1900 µg/mL (≈ 3680 µM); in data set [6] (oil or lipid, thermodynamic from solid, in Labrafac PG), 110 ± 10 µg/mL (≈ 213 µM); in data set [6] (oil or lipid, thermodynamic from solid, in Miglyol 812) it was 620 ± 120 µg/mL (≈ 1200 µM); in data set [6] (oil or lipid, thermodynamic from solid, in castor oil), 2140 ± 70 µg/mL (≈ 4150 µM); in data set [6] (oil or lipid, thermodynamic from solid, in cotton seed oil) it was 980 ± 570 µg/mL (≈ 1900 µM). The solubility at 3 days came to 5900 ± 50 µg/mL (≈ 11400 µM) in data set [6] (oil or lipid, thermodynamic from solid, in oleic acid); 1950 ± 180 µg/mL (≈ 3780 µM) in data set [6] (oil or lipid, thermodynamic from solid, in peanut oil); 800 ± 130 µg/mL (≈ 1550 µM) in data set [6] (oil or lipid, thermodynamic from solid, in soybean oil); 30 ± 10 µg/mL (≈ 58.2 µM) in data set [6] (oil or lipid, thermodynamic from solid, in tricaprylin).

Take `Cc1nc2n(c(=O)c1CCN1CCC(c3noc4cc(F)ccc34)CC1)CCCC2O` (centres unmarked) [paliperidone]: in data set [7], the “AUC after 1 day post‐dosing, times higher than IM injection with no treatment” value was “approximately 2.2 times” and the “C max, times higher than IM injection with no treatment” value is reported as 1.5 times.
